Laboratory results as given in paper PMC4503722, “Novel Phenotypic Outcomes Identified for a Public Collection of Approved Drugs from a Publicly Accessible Panel of Assays” (PLoS ONE, 2015).
pIC50: −log10 of the molar value. Like-named read-outs stand apart in the source and are kept apart here.

How the values were obtained:
HeLa cells = assay: cells; format: cell-based;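 on Hela CellCycMod PI 4N summarized IC50: value tracks stimulation of 4N DNA content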
RKO = assay: cells; format: cell-based; conditions: for pIC50: read-out: Basal_Viability ATP RKO summarized IC50
SNU-C1 = assay: cells; format: cell-based; conditions: for pIC50: read-out: Basal_Viability ATP SNU-C1 summarized IC50
Colo320 = assay: cells; format: cell-based; conditions: for pIC50: read-out: Basal_Viability ATP Colo 320 summarized IC50
SW480 = assay: cells; format: cell-based; conditions: for pIC50: read-out: Basal_Viability ATP SW480 summarized IC50
[1] = tested on: endothelial tube formation in co-cultures of ECFCs and ADSCs treated with VEGF; assay: cells; format: cell-based, human; conditions: for pIC50: read-out: VEGF_ADSC\ECFC Angio CD31 TubeArea summarized IC50
DLD-1 = assay: cells; format: cell-based; conditions: for pIC50: read-out: Basal_Viability ATP DLD-1 summarized IC50
[2] = tested on: ECFC/ADSC co-culture cell nuclei number; conditions: for pIC50: read-out: VEGF_ADSC\ECFC Angio Hoechst NucArea summarized IC50
HT-29 = assay: cells; format: cell-based; conditions: for pIC50: read-out: Basal_Viability ATP HT-29 summarized IC50
HCT116 = assay: cells; format: cell-based; conditions: for pIC50: read-out: Basal_Viability ATP HCT116 summarized IC50
[3] = tested on: HCT116 cells treated with a GSK3β inhibitor; assay: cells; format: cell-based; conditions: assay number 26; GSK3b inhibitor pretreated
[4] = assay number 14, 2N, read-out: Hela CellCycMod PI 2N summarized IC50
[5] = assay number 15, S phase, read-out: Hela CellCycMod PI S Phase summarized IC50
[6] = assay number 16, 4N, read-out: Hela CellCycMod PI 4N summarized IC50
[7] = assay number 17, MI, read-out: Hela CellCycMod PI MI summarized IC50
[8] = assay number 18, cell number, read-out: Hela CellCycMod PI Cell Number summarized IC50

SMILES	pIC50 (RKO; assay number 29, basal)	pIC50 (SNU-C1; assay number 30, basal)	pIC50 (Colo320; assay number 27, basal)	pIC50 (SW480; assay number 24, basal)	pIC50 [1]	pIC50 (DLD-1; assay number 23, basal)	pIC50 [2]	pIC50 (HT-29; assay number 28, basal)	Basal_Viability ATP HCT116 IC50/EC50 (HCT116; assay number 25, basal)	Basal_Viability ATP RKO IC50/EC50 (RKO; assay number 29, basal)	Basal_Viability ATP SNU-C1 IC50/EC50 (SNU-C1; assay number 30, basal)	Basal_Viability ATP Colo 320 IC50/EC50 (Colo320; assay number 27, basal)	VEGF_ADSC\ECFC Angio CD31 TubeArea IC50/EC50 [1]	Basal_Viability ATP DLD-1 IC50/EC50 (DLD-1; assay number 23, basal)	VEGF_ADSC\ECFC Angio Hoechst NucArea IC50/EC50 [2]	Basal_Viability ATP HT-29 IC50/EC50 (HT-29; assay number 28, basal)	pIC50 (HCT116; assay number 25, basal)	also measured
O=c1[nH]cc(F)c(=O)[nH]1 [NCGC00015442-15]	< 4.70	< 4.70	< 4.70	< 4.70	< 5.00	< 4.70	< 5.00	< 4.70										pIC50 (HeLa cells; [4]): < 5.00; pIC50 (HeLa cells; [5]): < 5.00; pIC50 (HeLa cells; [6]): < 5.00; pIC50 (HeLa cells; [7]): < 5.00; pIC50 (HeLa cells; [8]): < 5.00
O=C1C(=O)c2ccccc2C(O)=C1C1CCC(c2ccc(Cl)cc2)CC1 (centres unmarked) [NCGC00016961-06]									0.1384 µM	0.1142 µM	0.3675 µM	0.1764 µM	5.1845 µM	0.0838 µM	> 10 µM	0.4112 µM		Hela CellCycMod PI 2N IC50/EC50 (HeLa cells; assay number 14, 2N): > 10 µM; Hela CellCycMod PI 4N IC50/EC50 (HeLa cells; assay number 16, 4N): > 10 µM; Hela CellCycMod PI MI IC50/EC50 (HeLa cells; assay number 17, MI): > 10 µM; Hela CellCycMod PI Cell Number IC50/EC50 (HeLa cells; assay number 18, cell number): > 10 µM; Basal_Viability ATP SW480 IC50/EC50 (SW480; assay number 24, basal): 0.0946 µM
Nc1ncn([C@@H]2O[C@H](CO)[C@@H](O)[C@H]2O)c(=O)n1 [NCGC00090851-10]									3.0364 µM				> 10 µM		> 10 µM			Basal_Viability ATP RKO IC50/EC50 (RKO; assay number 29): 7.4004 µM; Basal_Viability ATP SNU-C1 IC50/EC50 (SNU-C1; assay number 30): 1.8027 µM; Basal_Viability ATP Colo 320 IC50/EC50 (Colo320; assay number 27): 12.3406 µM; Basal_Viability ATP SW480 IC50/EC50 (SW480; assay number 24): > 6.6667 µM; Basal_Viability ATP DLD-1 IC50/EC50 (DLD-1; assay number 23): 2.5502 µM; Basal_Viability ATP HT-29 IC50/EC50 (HT-29; assay number 28): 12.5329 µM
CC(=O)[O][Hg][c]1ccccc1 [NCGC00091050-09]	5.92	6.72	5.88	6.27	6.28	6.13	6.05	6.10									5.55	
CN(C)c1ccc(C(=C2C=CC(=[N+](C)C)C=C2)c2ccc(N(C)C)cc2)cc1 [NCGC00091112-09]	6.00	6.40	5.69	6.28	6.73	6.33	5.74	6.33									6.29	
Oc1ccc(Cl)cc1Cc1cc(Cl)ccc1O [NCGC00091325-09]					5.63		5.22											pIC50 (HCT116): 5.81; pIC50 (RKO): 5.71; pIC50 (SNU-C1): 6.26; pIC50 (Colo320): 5.92; pIC50 (SW480): 5.60; pIC50 (DLD-1): 6.06; pIC50 (HT-29): 5.33
CC[n+]1c(-c2ccccc2)c2cc(N)ccc2c2ccc(N)cc21 [NCGC00091387-08]	5.48	< 4.70	< 4.70	< 4.70		< 4.70		< 4.70									5.35	pIC50 (HeLa cells; [4]): < 5.00; pIC50 (HeLa cells; [5]): < 5.00; pIC50 (HeLa cells; [6]): < 5.00; pIC50 (HeLa cells; [7]): < 5.00; pIC50 (HeLa cells; [8]): < 5.00
Cc1c(C)c2c(c(C)c1O)CC[C@@](C)(CCC[C@H](C)CCC[C@H](C)CCCC(C)C)O2 [NCGC00142625-10]	5.58	< 4.70	< 4.70	< 4.70	< 5.00	< 4.70	< 5.00	< 4.70									< 4.70	
Nc1nc(Cl)nc2c1ncn2[C@@H]1O[C@H](CO)[C@@H](O)[C@@H]1F [NCGC00164553-02]									0.001 µM	0.001 µM	> 20 µM	> 20 µM		0.1636 µM		> 20 µM		Hela CellCycMod PI 2N IC50/EC50 (HeLa cells; assay number 14, 2N): > 10 µM; Hela CellCycMod PI S Phase IC50/EC50 (HeLa cells; assay number 15, S phase): > 10 µM; Hela CellCycMod PI 4N IC50/EC50 (HeLa cells; assay number 16, 4N): > 10 µM; Hela CellCycMod PI MI IC50/EC50 (HeLa cells; assay number 17, MI): > 10 µM; Hela CellCycMod PI Cell Number IC50/EC50 (HeLa cells; assay number 18, cell number): 0.00516 µM; GSK3b inh pretreated_Viability ATP HCT116 IC50/EC50 [3]: 0.001 µM
Cc1cc(C(C#N)c2ccc(Cl)cc2)c(Cl)cc1NC(=O)c1cc(I)cc(I)c1O (centres unmarked) [NCGC00166312-02]													> 10 µM		7.36 µM			Basal_Viability ATP HCT116 IC50/EC50 (HCT116): 0.09775 µM; Basal_Viability ATP RKO IC50/EC50 (RKO): 0.1971 µM; Basal_Viability ATP SNU-C1 IC50/EC50 (SNU-C1): 0.0438 µM; Basal_Viability ATP Colo 320 IC50/EC50 (Colo320): 0.116 µM; Basal_Viability ATP SW480 IC50/EC50 (SW480): 0.046 µM; Basal_Viability ATP DLD-1 IC50/EC50 (DLD-1): 0.069 µM; Basal_Viability ATP HT-29 IC50/EC50 (HT-29): 0.1255 µM
NCCCC[C@H](N[C@@H](CCc1ccccc1)C(=O)O)C(=O)N1CCC[C@H]1C(=O)O [NCGC00179623-04]									3.3925 µM	8.8772 µM	2.5347 µM	> 20 µM		2.2356 µM		> 6.667 µM		Hela CellCycMod PI 2N IC50/EC50 (HeLa cells; assay number 14, 2N): > 10 µM; Hela CellCycMod PI S Phase IC50/EC50 (HeLa cells; assay number 15, S phase): > 10 µM; Hela CellCycMod PI 4N IC50/EC50 (HeLa cells; assay number 16, 4N): > 10 µM; Hela CellCycMod PI MI IC50/EC50 (HeLa cells; assay number 17, MI): > 10 µM; Hela CellCycMod PI Cell Number IC50/EC50 (HeLa cells; assay number 18, cell number): > 10 µM; Basal_Viability ATP SW480 IC50/EC50 (SW480; assay number 24, basal): 4.028 µM
C/C(=C(/OCCOc1ccc(Cl)cc1)c1ccc(Cl)cc1Cl)n1ccnc1 [NCGC00249921-01]													5.8398 µM		9.416 µM			Basal_Viability ATP HCT116 IC50/EC50 (HCT116): > 6.6667 µM; Basal_Viability ATP RKO IC50/EC50 (RKO): > 6.6667 µM; Basal_Viability ATP SNU-C1 IC50/EC50 (SNU-C1): 2.3457 µM; Basal_Viability ATP Colo 320 IC50/EC50 (Colo320): 5.8551 µM; Basal_Viability ATP SW480 IC50/EC50 (SW480): 8.4611 µM; Basal_Viability ATP DLD-1 IC50/EC50 (DLD-1): 4.1804 µM; Basal_Viability ATP HT-29 IC50/EC50 (HT-29): > 6.667 µM
O=C(O)C1(C(=O)O)CCC1.[NH2-].[NH2-].[Pt+2] [NCGC00263858-02]									> 20 µM	> 20 µM	> 20 µM	> 20 µM	> 10 µM	> 20 µM	> 10 µM	> 20 µM		Basal_Viability ATP SW480 IC50/EC50 (SW480; assay number 24, basal): > 20 µM
